# Data from the supplement of paper PMC10307832.
# Assays:
# Test in all cases: relative viability (nuclei count vs DMSO), 5 days (fraction); higher = more cells survive
# [1] = compound: CN(C)C[C@@H]1CCn2cc(c3ccccc32)C2=C(C(=O)NC2=O)c2cn(c3ccccc23)CCO1 [Ruboxistaurin] + Cc1nc(Nc2ncc(C(=O)Nc3c(C)cccc3Cl)s2)cc(N2CCN(CCO)CC2)n1 [Dasatinib] (partner 0.075 µM)
# Outline: (§1)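 Nuclei were stained with Hoechst during a one-step fixation (final 0.05% Triton X-100, 1% formaldehyde, 1 ug/ml Hoechst) carried out 5 days after dosing, then counted on 4× images. The cells, lung cancer lines in 1536-well plates, had been dosed by pin tool the day after seeding with one drug alone or a fixed anchor-drug dose plus five library-drug doses (not always all listed) in √10 steps. Relative viability is the nuclei count in treated wells divided by that in vehicle wells, and each value is the median of duplicate plates.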
# [2] = compound: CN(C)C[C@@H]1CCn2cc(c3ccccc32)C2=C(C(=O)NC2=O)c2cn(c3ccccc23)CCO1 [Ruboxistaurin] + N=C(N)NC(=N)NCCc1ccccc1 [Phenformin] (partner 250 µM)
# Outline: as §1
# [3] = compound: CN(C)C[C@@H]1CCn2cc(c3ccccc32)C2=C(C(=O)NC2=O)c2cn(c3ccccc23)CCO1 [Ruboxistaurin] + CS(=O)(=O)N1CCN(Cc2cc3nc(-c4cccc5[nH]ncc45)nc(N4CCOCC4)c3s2)CC1 [Pictilisib] (partner 1 µM)
# Outline: as §1
# [4] = compound: CN(C)C[C@@H]1CCn2cc(c3ccccc32)C2=C(C(=O)NC2=O)c2cn(c3ccccc23)CCO1 [Ruboxistaurin] + Cc1nc(NC(=O)N2CCC[C@H]2C(N)=O)sc1-c1ccnc(C(C)(C)C(F)(F)F)c1 [Alpelisib] (partner 2 µM)
# Outline: as §1
# [5] = compound: CN(C)C[C@@H]1CCn2cc(c3ccccc32)C2=C(C(=O)NC2=O)c2cn(c3ccccc23)CCO1 [Ruboxistaurin] + CS(=O)(=O)CCNCc1ccc(-c2ccc3ncnc(Nc4ccc(OCc5cccc(F)c5)c(Cl)c4)c3c2)o1 [Lapatinib] (partner 2 µM)
# Outline: as §1
Cell Line,relative viability ([1]; first compound 0.08 µM),relative viability ([1]; first compound 0.8 µM),relative viability ([1]; first compound 2.53 µM),relative viability ([1]; first compound 8 µM),relative viability ([2]; first compound 0.08 µM),relative viability ([2]; first compound 0.8 µM),relative viability ([2]; first compound 2.53 µM),relative viability ([2]; first compound 8 µM),relative viability ([3]; first compound 0.08 µM),relative viability ([3]; first compound 0.8 µM),relative viability ([3]; first compound 2.53 µM),relative viability ([3]; first compound 8 µM),relative viability ([4]; first compound 0.08 µM),relative viability ([4]; first compound 0.8 µM),relative viability ([4]; first compound 2.53 µM),relative viability ([4]; first compound 8 µM),relative viability ([5]; first compound 0.08 µM),relative viability ([5]; first compound 0.8 µM),relative viability ([5]; first compound 2.53 µM),relative viability ([5]; first compound 8 µM)
ChaGo-K-1,0.564,0.611,0.636,0.478,0.47,0.525,0.532,0.412,1.23,0.758,0.655,0.424,–,–,–,–,–,–,–,–
EKVX,0.641,0.476,0.551,0.579,0.249,0.221,0.234,0.26,0.53,0.423,0.438,0.354,0.998,0.807,0.858,0.745,0.2,0.19,0.216,0.188
EMC-BAC-2,0.328,0.262,0.256,0.138,0.601,0.469,0.505,0.438,0.59,0.47,0.491,0.426,0.75,0.703,0.733,0.612,0.879,0.856,0.866,0.802
EPLC-272H,0.354,0.371,0.342,0.282,0.338,0.301,0.297,0.349,0.341,0.303,0.343,0.294,1.1,0.807,0.901,0.846,0.966,0.916,0.933,0.962
H3255,0.495,0.353,0.347,0.335,0.354,0.326,0.345,0.352,0.566,0.521,0.498,0.462,0.738,0.698,0.654,0.521,0.221,0.217,0.27,0.221
HARA,0.216,0.232,0.228,0.3,0.493,0.404,0.535,0.475,0.431,0.327,0.325,0.137,1.05,0.797,0.914,0.481,0.803,0.672,0.712,0.57
HCC-15,0.683,0.593,0.489,0.518,0.513,0.46,0.486,0.504,0.774,0.689,0.558,0.662,0.867,0.714,0.909,0.743,0.879,0.88,0.879,0.947
HCC-44,–,–,–,–,0.204,0.193,0.185,0.19,0.622,0.37,0.596,0.511,0.765,0.715,0.831,0.755,0.982,1,1.03,1.1
